Assay results taken from ChEMBL document CHEMBL4680275, “From Seeds of Apium graveolens Linn. to a Cerebral Ischemia Medicine: The Long Journey of 3-n-Butylphthalide” (J Med Chem, 2020).
pIC50: −log10 of the molar value.

Test: Antioxidant activity assessed as hydroxyl radical scavenging activity incubated for 60 mins in water bath by Fenton reaction-based method
Format: functional

SMILES	pIC50
CC1=NN(c2ccccc2)C(=O)C1 [EDARAVONE]	2.45
CCCCC1OC(=O)c2cc(N3N=C(C)CC3=O)ccc21 (racemic)	2.54
